From publication PMC9683698 (Science Advances, 2022)

Key:
[1] = molecular target: T1, cPLA2 (cPLA2 group IVA, PLA2G4A) (Homo sapiens, UniProt P47712); test: biochemical
T1 construct: recombinant, expressed and purified from insect cells
T1 sequence (P47712 1-749): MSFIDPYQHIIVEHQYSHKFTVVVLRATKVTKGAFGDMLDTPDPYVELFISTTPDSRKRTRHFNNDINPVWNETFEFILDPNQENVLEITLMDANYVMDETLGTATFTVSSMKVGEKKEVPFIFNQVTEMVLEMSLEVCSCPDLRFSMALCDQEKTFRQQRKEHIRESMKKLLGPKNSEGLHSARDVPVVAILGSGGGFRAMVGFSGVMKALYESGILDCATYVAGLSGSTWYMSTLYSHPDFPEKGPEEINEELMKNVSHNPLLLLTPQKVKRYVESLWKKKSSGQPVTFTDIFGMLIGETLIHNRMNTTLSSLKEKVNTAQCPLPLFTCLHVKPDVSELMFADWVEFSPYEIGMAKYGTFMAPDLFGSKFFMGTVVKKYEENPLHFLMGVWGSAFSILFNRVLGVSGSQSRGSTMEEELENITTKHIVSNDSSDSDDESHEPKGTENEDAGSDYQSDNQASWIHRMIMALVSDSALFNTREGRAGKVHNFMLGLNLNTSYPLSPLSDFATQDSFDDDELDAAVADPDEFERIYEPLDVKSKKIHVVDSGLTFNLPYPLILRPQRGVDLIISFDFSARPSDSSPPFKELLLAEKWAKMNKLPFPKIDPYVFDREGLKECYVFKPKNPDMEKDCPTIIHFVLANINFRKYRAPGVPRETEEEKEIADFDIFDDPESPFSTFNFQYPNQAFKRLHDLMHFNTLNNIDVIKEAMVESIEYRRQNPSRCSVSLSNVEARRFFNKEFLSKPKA

[2] = molecular target: SARS-CoV S ectodomain (SARS-CoV) (UniProt P59594); test: […], SEC buffer 20 mM tris pH 7.5, 100 mM NaCl; […]

Row | Compound | IC50 [1] | stoichiometry N [2]
1 | CCCCC/C=C\C/C=C\CCCCCCCC(=O)O [linoleic acid] | ~100 µM | –
2 | SARS-CoV S ectodomain (from UniProt P59594 14-1193) (domain or fragment) | – | 3
